The test system of data set [1] is Mut6 cells (TD-NSC). In words: luminescence-based Celltiter-Glo cell viability assay (ATP levels) on Mut6 tumor derived neuronal stem cells. Also on record: species or system mouse. To be noted: ATP activity as measure of viability, 96 hours, read-out: EC50 (TD-NSC). The text has this: A mouse colony with 100% incidence of GBM and with conditional knockout of p53, pTEN and NF1 genes (Mut6; glioblastoma) was used to isolate primary neuronal stem cells from GBM tumors cultured in 5% Oxygen and in serum free media with defined growth factors. Primary cells from multiple tumors were pooled for high throughput screening with controls against the University of Texas Southwestern (UTSW) compound file, which encompasses ˜200,000 synthetic compounds that represent a large chemical space from several commercial vendors, including 1200 marketed drugs from the Prestwick Chemical Library®, and 600 compounds that went to pre-clinical tests from the NIH library.
A luminescence-based Celltiter-Glo® assay was performed to measure cell viability, using ATP levels as the readout. In brief, opaque-walled multiwell plates with Mut6 cells in culture medium (25 μl per well, 384-well plates) were prepared. Control wells containing medium without cells were prepared to obtain a value for background luminescence. Test compounds were added to experimental wells, and incubated according to culture protocol. The plate and its contents were incubated at 37° C., 5% […] for 96 hours. An ATP standard curve was generated immediately prior to adding the CellTiter-Glo® Reagent. A volume of CellTiter-Glo® Reagent equal to the volume of cell culture medium present in each well (25 μl of reagent to 25 μl of medium containing cells for a 384-well plate) was added. The contents were mixed for 2 minutes on an orbital shaker to induce cell lysis. The plate was allowed to incubate at room temperature for 10 minutes to stabilize the luminescent signal and luminescence recorded. (e.g. GloMax®, Lumistar, SPECTROstar, PHERAstar FS).
Compound 4C12 served as initial lead compound for analog development and for additional studies. […] See Wager, T T et al, “Moving beyond rules: the development of a central nervous system multi-parameter-optimization (CNS MPO) approach to enable alignment of drug-like properties,” ACS Chem. Neurosci. 1(6): 435-49 (2010). IC50 curves for the analog compounds plotted as ATP activity (y axis, a measure of viability) vs. concentration (nM) (x-axis) are shown in FIG. 9.
A general note: ATP-based viability assays read luminescence as a measure of living cells.

Data set [2] is described as follows: S9 Metabolism Assay (half-life by substrate depletion). The data set is classed as in vitro ADME. To be noted: female, ICR/CD-1, S9 fractions, pH 7.5; mouse S9, 2 μM compound; time plotted in min; read-out: S9 T1/2. The method, then:
Female ICR/CD-1 mouse S9 fractions were purchased from Celsis/In Vitro Technologies (Baltimore, Md.). 25 μl (0.5 mg) of S9 protein was added to a 15 ml glass screw cap tube. 350 μl of a 50 mM Tris, pH 7.5 solution, containing the compound of interest was added on ice. The final concentration of compound after addition of all reagents was 2 μM. 125 μl of an NADPH-regenerating system (1.7 mg/ml NADP, 7.8 mg/ml glucose-6-phosphate, 6 U/ml glucose-6-phosphate dehydrogenase in 2% w/v NaHCO3/10 mm MgCl2) was added for analysis of Phase I metabolism. Uridine 5′-diphospho-α-D-glucuronic acid (UDPGA 1.9 mg/ml) and 3′-phosphoadenosine-5′-phosphosulphate (PAPS, 100 mg/ml) were additionally added for phase II reactions. The tube was then placed in a 37° C. shaking water bath. At varying time points after addition of phase I and phase II cofactors, the reaction was stopped by the addition of 0.5 ml of methanol containing 0.2% formic acid and 200 ng/ml internal standard (either n-benzylbenzamide or tolbutamide, Sigma, St. Louis, Mo.). The samples were incubated 10′ at RT and then spun at 16,100×g for 5 min in a microcentrifuge. The supernatant was analyzed by LC-MS/MS. Metabolism of 7-ethoxycoumarin was used to monitor […] performance. Analytical methods were developed for each compound using an Applied Biosystems (Foster City, Calif.) 4000-QTrap, a combination triple quadrupole/ion trap instrument. The parent ion and the two most prominent daughter ions were followed to confirm compound identity, although only the most abundant daughter was used for quantitation. A Shimadzu (Columbia, Md.) Prominence LC with Agilent C18 XDB column (5 micron packing; 50×4.6 mm) was used for chromatography.
The method described in McNaney, et al (McNaney, C A, D M Drexler, S Hnatyshyn, T A Zvyaga, J O Knipe, J V Belcastro, and M Sanders. 2008. An automated liquid chromatography-mass spectrometry process to determine metabolic stability half-life and intrinsic clearance of drug candidates by substrate depletion. Assay and Drug Development Technologies 6:121-129. Determination of Plasma and Brain Pharmacokinetics) was used with modification for determination of metabolic stability half-life by substrate depletion. A “% remaining” value was used to assess metabolic stability of a compound over time. The LC/MS/MS peak area of the incubated sample at each time point was divided by the LC/MS/MS peak area of the time 0 (TO) sample and multiplied by 100. The natural Log (LN) of the % remaining of compound was then plotted versus time (in min) and a linear regression curve plotted going through y-intercept at LN(100).

For 24 compounds, EC50 and half-life results are on record in patent US11548894B2, “Benzamide or benzamine compounds useful as anticancer agents for the treatment of human cancers” (The Board of Regents of the University of Texas System, priority 2015, dated 2023).

Where two headings read alike, the source gives them in different places.

As for `CCN1CCC[C@@H]1CNC(=O)c1ccc(Sc2ccc(F)cc2)c([N+](=O)[O-])c1` [DS-1-031, (R)—N-((1-ethylpyrrolidin-2-yl)methyl)-4-((4-fluorophenyl)thio)-3-nitrobenzamide], the 50% effective concentration (EC50) (usually the concentration at which the effect is half-maximal) in data set [1] (Mus musculus, 96 h) worked out at 0.033 µM. Further, the half-life at 2 μM in data set [2] came out at 1.89 h.

Take `CCN1CCCC1CNC(=O)c1ccc(Sc2ccc(F)cc2)c([N+](=O)[O-])c1` (stereo not shown) [DS-1-033, N-((1-ethylpyrrolidin-2-yl)methyl)-4-((4-fluorophenyl)thio)-3-nitrobenzamide]: the concentration for a half-maximal effect (EC50) in data set [1] is 0.045 µM. In addition, in data set [2], the half-life at 2 μM was determined as 1.98 h.

As for `CCN(CC)CCNC(=O)c1ccc(Sc2ccc(F)cc2)c([N+](=O)[O-])c1` [DS-1-043, N-(2-(diethylamino)ethyl)-4-((4-fluorophenyl)thio)-3-nitrobenzamide], the half-maximal effective concentration (EC50) in data set [1] amounted to 0.022 µM. In addition, the half-life at 2 μM in data set [2] amounted to 0.75 h.

For `CCN1CCC[C@H]1CNC(=O)c1ccc(Sc2ccc(F)cc2)c([N+](=O)[O-])c1` [DS-1-053, (S)—N-((1-ethylpyrrolidin-2-yl)methy)-4-((4-fluorophenyl)thio)-3-nitrobenzamide], the EC50 in data set [1] (Mus musculus, 96 h) was 0.031 µM. In data set [2], the half-life at 2 μM amounted to 1.1 h.

As for `CCN1CCCC1CNC(=O)c1ccc(Sc2ccccc2)c([N+](=O)[O-])c1` (stereo not shown) [DS-1-055, N-((1-ethylpyrrolidin-2-yl)methyl)-3-nitro-4-(phenylthio)benzamide], in data set [1] (Mus musculus, 96 h), the concentration for a half-maximal effect (EC50) was 0.05 µM. Further, in data set [2], the half-life at 2 μM worked out at 0.59 h.

`CN1CCCC1CCNC(=O)c1ccc(Sc2ccc(F)cc2)c([N+](=O)[O-])c1` (stereo not shown) [DS-1-061, 4-((4-fluorophenyl)thio)-N-(2-(1-methylpyrrolidin-2-yl)ethyl)-3-nitrobenzamide]: the half-maximal effective concentration (EC50) in data set [1] (Mus musculus, 96 h) was determined as 0.079 µM. Moreover, the half-life at 2 μM in data set [2] amounted to 1.75 h.

As for `O=C(NCCN1CCCC1)c1ccc(Sc2ccc(F)cc2)c([N+](=O)[O-])c1` [DS-1-063, 4-((4-fluorophenyl)thio)-3-nitro-N-(2-(pyrrolidin-1-yl)ethyl)benzamide], the 50% effective concentration (EC50) in data set [1] (Mus musculus, 96 h) is 0.052 µM. The half-life at 2 μM in data set [2] worked out at 3.12 h.

For `CCN1CCCC1CNC(=O)c1ccc(Sc2cccc(F)c2)c([N+](=O)[O-])c1` (stereo not shown) [DS-1-069, N-((1-ethylpyrrolidin-2-yl)methyl)-4-((3-fluorophenyl)thio)-3-nitrobenzamide], in data set [1] (Mus musculus, 96 h), the EC50 amounted to 0.088 µM. The half-life at 2 μM in data set [2] is 0.587 h.

On to `CCN1CCCC1CNCc1ccc(Sc2ccc(F)cc2)c([N+](=O)[O-])c1` (stereo not shown) [DS-1-079, 1-(1-ethylpyrrolidin-2-yl)-N-(4-((4-fluorophenyl)thio)-3-nitrobenzyl)methanamine], for which the half-maximal effective concentration (EC50) in data set [1] (Mus musculus, 96 h) is 0.036 µM. For the same compound, the half-life at 2 μM in data set [2] is 0.357 h.

Turning to `O=C(NC[C@@H]1CCCN1)c1ccc(Sc2ccc(F)cc2)c([N+](=O)[O-])c1` [DS-1-085, (S)-4-((4-fluorophenyl)thio)-3-nitro-N-(pyrrolidin-2-ylmethyl)benzamide], the concentration giving a half-maximal response (EC50) in data set [1] (Mus musculus, 96 h) came to 0.132 µM. The half-life at 2 μM in data set [2] is 4 h.

Regarding `CCN1CCCC1CNC(=O)c1ccc(Sc2ccc(F)cc2F)c([N+](=O)[O-])c1` (stereo not shown) [DS-1-125, 4-((2,4-difluorophenyl)thio)-N-((1-ethylpyrrolidin-2-yl)methyl)-3-nitrobenzamide], the EC50 in data set [1] (Mus musculus, 96 h) was found to be 0.051 µM. Also, the half-life at 2 μM in data set [2] was determined as 1.46 h.

As to `CCN1CCCC1CNC(=O)c1ccc(Sc2ccncc2)c([N+](=O)[O-])c1` (stereo not shown) [DS-1-129, N-((1-ethylpyrrolidin-2-yl)methyl)-3-nitro-4-(pyridin-4-ylthio)benzamide], the concentration for a half-maximal effect (EC50) in data set [1] (Mus musculus, 96 h) stood at 0.15 µM. In addition, the half-life at 2 μM in data set [2] amounted to 1.54 h.

On to `CCN1CCCC1CNC(=O)c1ccc(SCc2ccc(F)cc2)c([N+](=O)[O-])c1` (stereo not shown) [DS-1-131, N-((1-ethylpyrrolidin-2-yl)methyl)-4-((4-fluorobenzyl)thio)-3-nitrobenzamide], for which the EC50 in data set [1] (Mus musculus, 96 h) turned out to be 0.035 µM. For the same compound, the half-life at 2 μM in data set [2] amounted to 1.6 h.

For the compound `CCN1CCCC1CNC(=O)c1ccc(Sc2ccc(OC)cc2)c([N+](=O)[O-])c1` (stereo not shown) [DS-1-133, N-((1-ethylpyrrolidin-2-yl)methyl)-4-((4-methoxyphenyl)thio)-3-nitrobenzamide], the EC50 in data set [1] (Mus musculus, 96 h) was found to be 0.062 µM. Further, in data set [2], the half-life at 2 μM is 0.802 h.

In the case of `CCN1CCCC1CNC(=O)c1ccc(Sc2ccc(Cl)cc2)c([N+](=O)[O-])c1` (stereo not shown) [DS-1-163, 4-((4-chlorophenyl)thio)-N-((1-ethylpyrrolidin-2-yl)methyl)-3-nitrobenzamide], the EC50 in data set [1] (Mus musculus, 96 h) came to 0.051 µM. Further, the half-life at 2 μM in data set [2] was 1.48 h.

For `CCN1CCCC1CNC(=O)c1ccc(Sc2ccc(F)cc2)c(C#N)c1` (stereo not shown) [DS-1-227, 3-cyano-N-((1-ethylpyrrolidin-2-yl)methyl)-4-((4-fluorophenyl)thio)benzamide], the EC50 in data set [1] (Mus musculus, 96 h) was found to be 0.053 µM. For the same compound, in data set [2], the half-life at 2 μM amounted to 1.08 h.

Consider `CCN1CCCC1CNC(=O)c1ccc(Oc2ccc(F)cc2)c(C#N)c1` (stereo not shown) [DS-1-311, 3-cyano-N-((1-ethylpyrrolidin-2-yl)methyl)-4-(4-fluorophenoxy)benzamide], for which, in data set [2], the half-life at 2 μM came out at 1.96 h.

Regarding `N#Cc1cc(C(=O)NCCN2CCOCC2)ccc1Sc1ccc(F)cc1` [DS-2-027, 3-cyano-4-((4-fluorophenyl)thio)-N-(2-morpholinoethyl)benzamide], in data set [2], the half-life at 2 μM amounted to 0.668 h.

Consider `C#CCN(CC1CCCN1CC)C(=O)c1ccc(Sc2ccc(F)cc2)c([N+](=O)[O-])c1` (stereo not shown) [ww2-292, N-((1-ethylpyrrolidin-2-yl)methyl)-4-((4-fluorophenyl)thio)-3-nitro-N-(prop-2-yn-1-yl)benzamide], for which, in data set [1] (Mus musculus, 96 h), the EC50 came out at 0.531 µM.

As for `CCN1CCCC1CNC(=O)c1ccc(OCc2ccc(C3(C(F)(F)F)N=N3)cc2)c([N+](=O)[O-])c1` (stereo not shown) [ww3-13], the concentration giving a half-maximal response (EC50) in data set [1] (Mus musculus, 96 h) was more than 1 µM.

Take `CCN1CCCC1CNC(=O)c1ccc(Sc2ccc(F)cc2)c(N=[N+]=[N-])c1` (stereo not shown) [ww3-57, 3-azido-N-((1-ethylpyrrolidin-2-yl)methyl)-4-((4-fluorophenyl)thio)benzamide]: the EC50 in data set [1] (Mus musculus, 96 h) came out at 0.063 µM.

Take `CCN(CCO)CCNC(=O)c1ccc(Sc2ccc(F)cc2)c([N+](=O)[O-])c1` [ww3-62, N-(2-(ethyl(2-hydroxyethyl)amino)ethyl)-4-((4-fluorophenyl)thio)-3-nitrobenzamide]: the 50% effective concentration (EC50) in data set [1] (Mus musculus, 96 h) stood at 0.057 µM.

Take `C#CCN(CC)CCNC(=O)c1ccc(Sc2ccc(F)cc2)c(N=[N+]=[N-])c1` [ww3-77, 3-azido-N-(2-(ethyl(prop-2-yn-1-yl)amino)ethyl)-4-((4-fluorophenyl)thio)benzamide]: the EC50 in data set [1] (Mus musculus, 96 h) was 0.239 µM.

Turning to `C#CCN(CCNC(=O)c1ccc(Sc2ccc(F)cc2)c([N+](=O)[O-])c1)CCOC(=O)c1ccc(C(=O)c2ccccc2)cc1` [ww3-80, 2-((2-(4-((4-fluorophenyl)thio)-3-nitrobenzamido)ethyl)(prop-2-yn-1-yl)amino)ethyl 4-benzoylbenzoate], the EC50 in data set [1] (Mus musculus, 96 h) came out at 0.161 µM.
